Measured values: US20230085307A1, “PYRIDAZINONE COMPOUND AND HERBICIDE” (NISSAN CHEMICAL CORPORATION, priority 2019, published 2023)

Key:
Format in all cases: in vivo
rapeseed = assay: Test Example 5: effect on crop by foliage application, plastic box (Table 20, symbol g); conditions: 320 g/ha, three weeks after application
Method in brief: (§1)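 Plants sown in sterilized diluvial soil and grown 14 days in a greenhouse at 25° C to 30° C, then sprayed on the foliage with the compound's emulsion diluted in water to a predetermined herbicide amount. Injury to weeds and crops scored three weeks after application on a visual rating scale.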

wheat [1] = assay: Test Example 5: effect on crop by foliage application, plastic box (Table 20, symbol e); conditions: 320 g/ha, three weeks after application
Method in brief: as §1

soybean [2] = assay: Test Example 5: effect on crop by foliage application, plastic box (Table 20, symbol d); conditions: 320 g/ha, three weeks after application
Method in brief: as §1

directly sowed rice = assay: Test Example 3: effect on crop by foliage application, Wagner pot (Table 18, symbol b); conditions: amount of applied herbicide 320 g/ha
Method in brief: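 Plants were sown in alluvial soil held under 0.1–0.5 cm standing water and grown 14 days in a greenhouse at 25–30 °C. An emulsifiable formulation, water-diluted to the set dose, was then sprayed onto the foliage, and effects were scored three weeks later using previously defined criteria.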

beet = assay: Test Example 5: effect on crop by foliage application, plastic box (Table 20, symbol f); conditions: 320 g/ha, three weeks after application
Method in brief: as §1

wheat [3] = assay: Test Example 4: effect on crop by soil treatment (Table 19, symbol e); conditions: amount of applied herbicide 320 g/ha
Method in brief: (§2)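 Three weeks of greenhouse growth at 25° C. to 30° C. followed a uniform surface spray of water-diluted emulsion at a predetermined herbicide amount. Seeds had been sown beforehand under about 1.5 cm of sterilized diluvial soil. Grading followed criteria set out in an earlier test.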

corn [4] = assay: Test Example 5: effect on crop by foliage application, plastic box (Table 20, symbol c); conditions: 320 g/ha, three weeks after application
Method in brief: as §1

soybean [5] = assay: Test Example 4: effect on crop by soil treatment (Table 19, symbol d); conditions: amount of applied herbicide 320 g/ha
Method in brief: as §2

transplanted rice = assay: Test Example 1: effect on crop, application before weed generation under submerged conditions (Table 16, symbol a); conditions: amount of applied herbicide 320 g/ha
Method in brief: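 Alluvial soil was flooded to 4 cm depth, weed seeds were sown mixed and 2.5-leaf rice seedlings were transplanted. On sowing day, the compound's emulsion, diluted in water to a set dose, was applied to the water surface. Plants grew at 25–30 °C and were scored 0–5 after three weeks.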

corn [6] = assay: Test Example 4: effect on crop by soil treatment (Table 19, symbol c); conditions: amount of applied herbicide 320 g/ha
Method in brief: as §2

Compound: COc1ccc(-c2oc3ccc(F)cc3c2-c2c(O)c(C)nn(C)c2=O)cc1 [Compound No. 9-020, 4-(5-fluoro-2-(4-methoxyphenyl)benzofuran-3-yl)-5-hydroxy-2,6-dimethylpyridazin-3(2H)-one]
- effect on crop rapeseed (g) (rapeseed): 5 (Herbicidal rate of 90% or more (almost completely withered))
- effect on crop wheat (e) (wheat [1]): 3 (Herbicidal rate of 40% or more and less than 70%)
- effect on crop soybean (d) (soybean [2]): 3 (Herbicidal rate of 40% or more and less than 70%)
- Effect on crop b (directly sowed rice), foliage application (directly sowed rice): 0 (Herbicidal rate of 5% or less (almost no effect))
- effect on crop beet (f) (beet): 5 (Herbicidal rate of 90% or more (almost completely withered))
- e: wheat, effect on crop grade (wheat [3]): 2 (Herbicidal rate of 20% or more and less than 40%)
- effect on crop corn (c) (corn [4]): 0 (Herbicidal rate of 5% or less (almost no effect))
- d: soybean, effect on crop grade (soybean [5]): 0 (Herbicidal rate of 5% or less (almost no effect))
- Effect on crop, a: transplanted rice (transplanted rice): 0 (Herbicidal rate of 5% or less (almost no effect))
- c: corn, effect on crop grade (corn [6]): 0 (Herbicidal rate of 5% or less (almost no effect))
